Structures can show the parent of a compound that is named as a salt. Where two headings read alike, the source gives them in different places.

The subject of one series is PANC-1. Briefly: Cytotoxicity assay (MTS, 72 h). The series is classed as cell-based. The following applies: Homo sapiens. As to the method: Mia PaCa-2 and PANC-1 cells were seeded in 96-well plates at 4000 and 5000 cells per well, respectively.
(§1) Cytotoxicity Assay. […] Each experiment consisted of four replicates.

In series [1] the test system is melanoma, breast, pancreatic and prostate cancer cell lines. In words: Cytotoxicity of Example 8 compounds. The series is classed as cell-based, human.
Text: as §1

A further series deals with MDA-MB-231. In words: Cytotoxicity assay (MTS, 72 h). In kind it is cell-based. The conditions noted are these: Homo sapiens.
Another series has as its system Mia PaCa-2. In words: Cytotoxicity assay (MTS, 72 h). The series is classed as cell-based. The conditions noted are these: Homo sapiens.
For the next series, the system named is A-253 and Detroit 562. Briefly: Cytotoxicity in head and neck cancer cell lines. The series is classed as cell-based. The conditions noted are these: Homo sapiens; FIG. 39A; read-out: IC50 values, range over A-253 and Detroit 562. As to the method: A panel of dihydroquinoxalinones were tested in two head and neck cancer cell lines, A-253 and Detroit 562. A-253 cells are a human salivary epidermoid carcinoma cell line, whereas Detroit 562 is a head and neck squamous cell carcinoma (HNSCC). Oral cancer is the most common type of head and neck cancer and more than 90% of oral cancers are either oral or oropharyngeal squamous cell carcinoma (SCC). A major clinical dilemma is chemotherapy efficiency targeted for head and neck squamous cell carcinoma (HNSCC). The inability to successfully complete cancer treatment utilizing a standard surgical approach due to an advanced stage of HNSCC and/or resistance of SCC cells to conventional chemotherapy and/or radiotherapy leads to a continuous search for new compounds with cytostatic activity and minor side effects.
FIGS. 39B and 39C illustrate the graphical representation of the data. […] For example, at treatment levels as low of 0.5 nM, 12k was able to prevent head and neck cancer cell proliferation almost completely, whereas it required 5 nM of 17ya to achieve similar antiproliferation.

The test system of another series is A549/TxR. In words: cells. The conditions noted are these: Homo sapiens, read-out: IC50 ± SEM (nM) A549/TxR.
A further series relates to A375/TxR. Briefly: Cytotoxicity assay (MTS, 72 h). The conditions noted are these: Homo sapiens, read-out: IC50 ± SEM (nM) A375/TxR. The series is classed as cell-based.
The nature of another series: logP. In kind it is physicochemical. The following applies: Table 1; method not described.
For a further series, the system named is RPMI-7951. Briefly: Cytotoxicity assay (MTS, 72 h). The series is classed as cell-based. The conditions noted are these: Homo sapiens, Table 1, read-out: IC50 (nM) Melanoma RPMI-7951.
Another series deals with MDA-MB-231/VxR. Briefly: Cytotoxicity assay (MTS, 72 h). The series is classed as cell-based. The following applies: Homo sapiens, MDA-MB-231, read-out: IC50 ± SEM (nM) MDA-MB-231/VXR.
Series [2] deals with taxane-resistant melanoma, breast, and lung cancer cells. In words: Cytotoxicity, regular and taxane-resistant lines of Table 2. In kind it is cell-based. The following applies: Homo sapiens; taxane-resistant melanoma, breast, and lung cancer cells; read-out: IC50 values, range against taxane-resistant cells.
The test system of the next series is DU-145/VxR. Briefly: Cytotoxicity assay (MTS, 72 h). In kind it is cell-based. The conditions noted are these: Homo sapiens, DU-145, read-out: IC50 ± SEM (nM) DU-145/VXR.
Series [3] deals with human melanoma and breast cancer cell lines. Briefly: Cytotoxicity, all tested cell lines of Table 1. The series is classed as cell-based. The conditions noted are these: melanoma and breast lines of Table 1.
The target in series [4] is T1, tubulin protein from bovine brain (Bos taurus, UniProt P81947+Q6B856).
T1 construct: tubulin protein from bovine brain origin; purchased Cytoskeleton, Denver, Colo; host or cells: bovine brain
In words: Tubulin polymerization assay (FIG. 5A). In kind it is biochemical. The conditions noted are these: 10 μM, cell-free. The procedure: Tubulin polymerization reaction was initiated by adding 100 μL of tubulin protein from bovine brain origin (3 mg/ml, Cytoskeleton, Denver, Colo.) into 10 μM of test compounds in general tubulin buffer (80 mM PIPES, 2.0 mM MgCl2, 0.5 mM EGTA, and 1 mM GTP) according to the manufacturer protocol. The reaction kinetics were recorded in every thirty seconds for 1 h at 37° C. and a microplate reader equipped with absorbance settings at 340 nm wavelength was used for this purpose. The experiment was performed in duplicates.

A further series deals with PC3. Briefly: Cytotoxicity assay (MTS, 72 h). In kind it is cell-based. The conditions noted are these: Homo sapiens, PC-3; Table 6; read-out: IC50 (nM) Prostate cancer PC3.
Text: as §1

The subject of the next series is PC3/TxR. In words: Cytotoxicity assay (MTS, 72 h). In kind it is cell-based. The conditions noted are these: Homo sapiens, Table 6, paclitaxel-resistant, read-out: IC50 (nM) Prostate cancer PC3/TxR. The procedure: Biology. Cell culture and Reagents. […] MIA Paca-2 pancreatic cancer cells were cultured in media also supplemented with 2.5% horse serum. PANC-1 and PC-3 were cultured in RPMI 1640 medium (Gibco, Carlsbad, Calif.) supplemented with 10% FBS and 1% antibiotic/antimycotic mixture. […] For biological experiments, pyrimidine dihydroquinoxalinone derivatives were dissolved in DMSO to create 20 mM stock solutions and stored at −20° C. until use.
as §1

A further series relates to MDA-MB-453. In words: Cytotoxicity assay (MTS, 72 h). The series is classed as cell-based, human. The conditions noted are these: Homo sapiens, MDA-MB-453.
Series [5] is described as follows: in vitro. The following applies: human, liver microsomes. Background: Liver microsomes are a subcellular fraction often used to study metabolism.
Another series has as its system M14. In words: Cytotoxicity assay (MTS, 72 h). The following applies: Homo sapiens.
For another series, the system named is A375. Briefly: Cytotoxicity assay (MTS, 72 h). The conditions noted are these: Homo sapiens.
The nature of series [6]: in vitro. The conditions noted are these: mouse, liver microsomes.
A further series concerns M14/LCC6MDR1. Briefly: Cytotoxicity assay (MTS, 72 h). In kind it is cell-based. The conditions noted are these: Homo sapiens, read-out: IC50 ± SEM (nM) M14/LCC6MDR1.
A further series has as its system MDA-MB-468. Briefly: Cytotoxicity assay (MTS, 72 h). In kind it is cell-based, human. The following applies: Homo sapiens, MDA-MB-468; Table 1; read-out: IC50 (nM) Breast MDA-MB-468.
The mark [7] stands for this setting: MDA-MB-231, read-out: IC50 (nM) Breast Cancer MDA-MB-231, Table 6.

T1 sequence (P81947 whole entry): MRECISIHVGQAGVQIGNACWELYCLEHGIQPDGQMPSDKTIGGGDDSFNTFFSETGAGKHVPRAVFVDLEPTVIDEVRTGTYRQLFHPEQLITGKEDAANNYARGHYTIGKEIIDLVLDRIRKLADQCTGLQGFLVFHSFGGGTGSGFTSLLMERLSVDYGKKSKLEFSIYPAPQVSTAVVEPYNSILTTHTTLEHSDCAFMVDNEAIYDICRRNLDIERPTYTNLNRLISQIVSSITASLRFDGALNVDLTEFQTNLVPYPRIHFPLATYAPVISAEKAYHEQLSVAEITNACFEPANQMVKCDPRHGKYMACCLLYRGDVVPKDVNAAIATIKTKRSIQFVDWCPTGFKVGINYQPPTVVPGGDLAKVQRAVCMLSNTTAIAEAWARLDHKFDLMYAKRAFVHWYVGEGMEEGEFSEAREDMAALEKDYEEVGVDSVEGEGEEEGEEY
T1 sequence (Q6B856 whole entry): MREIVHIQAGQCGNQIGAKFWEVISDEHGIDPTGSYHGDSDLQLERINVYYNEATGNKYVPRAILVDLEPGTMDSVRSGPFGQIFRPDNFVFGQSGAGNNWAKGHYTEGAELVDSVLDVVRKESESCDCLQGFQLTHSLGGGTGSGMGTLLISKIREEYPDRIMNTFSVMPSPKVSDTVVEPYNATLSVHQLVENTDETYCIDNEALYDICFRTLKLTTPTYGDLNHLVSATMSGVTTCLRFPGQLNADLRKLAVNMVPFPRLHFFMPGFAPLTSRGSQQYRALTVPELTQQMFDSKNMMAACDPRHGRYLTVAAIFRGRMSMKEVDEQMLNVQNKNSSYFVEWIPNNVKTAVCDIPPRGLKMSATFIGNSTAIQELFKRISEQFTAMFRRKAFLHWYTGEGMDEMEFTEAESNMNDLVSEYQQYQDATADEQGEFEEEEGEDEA

For `Cc1nc2c(c(N3CC(=O)Nc4cc(OCc5ccccc5)ccc43)n1)CCC2` [Compound 12p, 7-(benzyloxy)-4-(2-methyl-6,7-dihydro-5H-cyclopenta[d]pyrimidin-4-yl)-3,4-dihydroquinoxalin-2(1H)-one], the IC50 is over 1.2 µM in the series on PANC-1 (Table 6, cells printed in μM, read-out: IC50 Pancreatic cancer PANC-1); 423 ± 110 nM in the series on MDA-MB-231 (setting [7]); over 1.25 µM with Mia PaCa-2 (Table 6, cells printed in μM, read-out: IC50 Pancreatic cancer Mia PaCa-2). The “cytotoxic potency” value in series [1] is “least in potency”.
As for `CCNc1nc2c(c(N3CC(=O)Nc4cc(OC)ccc43)n1)CCC2` [5v HCl, 4-(2-(ethylamino)-6,7-dihydro-5H-cyclopenta[d]pyrimidin-4-yl)-7-methoxy-3,4-dihydroquinoxalin-2(1H)-one], in the series with A-253 and Detroit 562, the IC50 was in the range of 0.52 to 3.2 nM.
In general, logP refers to a log measure of how a compound divides between an organic and an aqueous phase. The low end stands for lower lipophilicity, the high end for higher lipophilicity. With `CCNc1nc(N2CC(=O)Nc3cc(OC)ccc32)c2ncccc2n1` [Compound 5t, 4-(2-(ethylamino)pyrido[3,2-d]pyrimidin-4-yl)-7-methoxy-3,4-dihydroquinoxalin-2(1H)-one], the IC50 with A549/TxR was 5.4 ± 1.7 nM; with A375/TxR (Table 2, paclitaxel-resistant), 1.3 nM; in the series with RPMI-7951, 0.8 ± 0.1 nM; in the series on MDA-MB-231/VxR it was 2.9 ± 0.4 nM; in series [2], 0.3 to 5 nM; in the series on DU-145/VxR, 1.8 ± 0.4 nM. Further, the IC50 in series [3] (Homo sapiens, read-out: IC50 values, range over all tested cell lines) was 0.4 to 26 nM. In addition, the logP in “logP” came out at 1.72. The “effect on microtubule polymerization” value in series [4] is “significantly inhibited microtubule polymerization”.
As to `CNC(=O)C(=O)Nc1cc(OC)ccc1Nc1nc(SC)nc2c1CCC2` [Compound 21, N1-(5-methoxy-2-((2-(methylthio)-6,7-dihydro-5H-cyclopenta[d]pyrimidin-4-yl)amino)phenyl)-N2-methyloxalamide], in [1], the “cytotoxic potency” value is on record as “little to no cytotoxic activity”.
What is called half-life is the time needed for the level to fall by half in the phase considered. As a reminder, the microsomal CLint is the capacity of the preparation to metabolise the compound, expressed as a volume cleared per time. A low value points to slow turnover. For `COc1ccc2c(c1)NC(=O)CN2c1nc(NC2CC2)nc2c1CCC2` [Compound 12j, 4-(2-(cyclopropylamino)-6,7-dihydro-5H-cyclopenta[d]pyrimidin-4-yl)-7-methoxy-3,4-dihydroquinoxalin-2(1H)-one], the IC50 in the series on PC3 stood at 0.6 nM; in the series with PC3/TxR, 0.2 nM; in the series with PANC-1 (Table 6, read-out: IC50 (nM) Pancreatic cancer PANC-1) it was 0.0034 ± 0.0006 µM; in the series with MDA-MB-453 (Table 6, read-out: IC50 (nM) Breast Cancer MDA-MB-453), 1.1 ± 0.3 nM; in the series on MDA-MB-231 (setting [7]), 2.2 ± 0.4 nM; with Mia PaCa-2 (Table 6, read-out: IC50 (nM) Pancreatic cancer Mia PaCa-2), 0.0039 ± 0.0006 µM. Further, the IC50 with M14 (M14, read-out: IC50 (nM) Melanoma Cancer M14) is 1.2 ± 0.3 nM; with A375 (A-375, read-out: IC50 (nM) Melanoma Cancer A375, Table 6), about 1.4 nM. In addition, the half-life at 1 μg/mL in “in vitro [5]” turned out to be 80.3 min; in “in vitro [6]”, 13.6 min. For the same compound, the intrinsic metabolic clearance (microsomal CLint) at 1 μg/mL in the series “in vitro [5]” worked out at 8.68 µL/min/mg; in the series “in vitro [6]”, 51 µL/min/mg.
Take `COc1ccc(N(C)c2nc(C)nc3ccccc23)cc1` [Verubulin, N-(4-methoxyphenyl)-N,2-dimethylquinazolin-4-amine, reference compound]: the IC50 with A375/TxR was 0.7 ± 0.1 nM; with MDA-MB-231/VxR, 2 ± 0.4 nM; with MDA-MB-231 (MDA-MB-231, read-out: IC50 ± SEM (nM) MDA-MB-231, Table 2) it was 1.9 ± 0.4 nM; with M14 (M14, read-out: IC50 ± SEM (nM) M14) it was 1 ± 0.1 nM; in the series with A375 (A-375, read-out: IC50 ± SEM (nM) A375, Table 2), 0.7 ± 0.1 nM.
As for `COc1ccc(Nc2nc(OC)nc3c2CCC3)c(N)c1` [Compound 20, 4-methoxy-N1-(2-methoxy-6,7-dihydro-5H-cyclopenta[d]pyrimidin-4-yl)benzene-1,2-diamine], the “cytotoxic potency” value in series [1] is recorded as “little to no cytotoxic activity”.
On to `COc1cc2c(c(OC)c1OC)-c1ccc(OC)c(=O)cc1[C@@H](NC(C)=O)CC2` [Colchicine, reference compound], for which, in the series on M14/LCC6MDR1, the IC50 was over 1000 nM.
Regarding `COc1ccc2c(c1)NC(=O)CN2c1nc(Cl)nc(C)c1C` [Compound 5q, 4-(2-chloro-5,6-dimethylpyrimidin-4-yl)-7-methoxy-3,4-dihydroquinoxalin-2(1H)-one], the logP in the series “logP” was 2.76. In addition, the IC50 with RPMI-7951 was over 1000 nM; in the series with MDA-MB-453 (Table 1, read-out: IC50 (nM) Breast MDA-MB-453) it was over 1000 nM; in the series on MDA-MB-231 (MDA-MB-231, read-out: IC50 (nM) Breast MDA-MB-231, Table 1), over 1000 nM; with M14 (M14, read-out: IC50 (nM) Melanoma M14) it was over 1000 nM; with A375 (A-375, read-out: IC50 (nM) Melanoma A375, Table 1) it was over 1000 nM; in the series on MDA-MB-468, over 1000 nM. Also, the “cytotoxic activity” value in [3] was “inactive”.

The record behind these values is patent US20230286995A1, “METABOLICALLY STABLE PYRIMIDINYL DIHYDROQUINOXALINONES AS TUBULIN POLYMERIZATION INHIBITORS” (UNIVERSITY OF TENNESSEE RESEARCH FOUNDATION, priority 2022, published 2023).
